Results from US12338261B2 (SUMITOMO PHARMA ONCOLOGY, INC., priority 2015, dated 2025).
Several values for one entry are separate records, joined by “and”; a condition that tells them apart may be missing. Equal values may be shown once. Read-outs that look alike come from different tables or passages of the source.

Columns and labels:
[1] = type: in vitro ADME, mouse; conditions: mouse, plasma
Procedure: (§1) The plasma stability of compound IB′ was determined using plasma from four species. Results for mouse, rat, dog and human are shown in Tables 5, 6, 7 and 8 respectively. Alvocidib and flumazenil were used as controls. In mouse, rat and human plasma, compound IB′ maintained 100% stability after 5 hour incubation. In dog plasma, approximately 90% of compound IB′ remained after 5 hours.

[2] = Pharmacokinetics in Sprague Dawley rats; type: in vivo, rat; conditions: SD rats; for concentration at 0.5 h: 0.50 hr
Procedure: Plasma samples were taken at 8 time-points (IV) or 7 time points (oral) over a 24 hour period following a single dose of compound IB′ (3 animals per group). […] The plasma samples were also analyzed for the presence of compound IB′.

[3] = Maximum tolerated acute dose in rats
Procedure: Acute (i.e. single dose) toxicology studies were performed in rats. Acute studies were performed in female Sprague Dawley rats using three animals per treatment group. […] Body weight measurements following oral dosing (see FIG. 4A), along with mortality, clinical observations, food consumption (see FIG. 4B), and complete blood counts (CBCs; see Table 12) were used to determine the maximum tolerated acute dose (MTDacute).

Dog plasma stability = type: in vitro ADME; conditions: dog plasma
Procedure: as §1

[4] = for MTDacute: female SHO SCID mice; for Body weight loss, peak: surviving mice
Procedure: Acute studies were performed in female SHO SCID mice using three animals per treatment group. […] Body weight measurements following oral dosing (FIGS. 2A-B) and intravenous (IV) dosing (FIG. 2C-D) were used, along with mortality and clinical observations to determine the maximum tolerated acute dose (MTDacute).

physchem = conditions: kinetic from dmso stock
[5] = system: MV4-11 mouse xenograft model of acute myeloid leukemia (AML); assay: Mouse xenograft efficacy study; type: in vivo; conditions: MV4-11 xenograft
Procedure: The in vivo activity of compound IB′ was determined in a MV4-11 mouse xenograft model of acute myeloid leukemia (AML). Injection of 8×10^6 MV4-11 cells/mouse was followed by growth of tumors to approximately 100 mm^3. After tumors reached the appropriate size, mice were randomized into the following treatment groups: Vehicle, compound IB′ (7.5 mg/kg, qdx5x3), compound IB′ (2.5 mg/kg, qdx5x3), compound IB′ (0.1 mg/kg, qdx5x3) and […]. Vehicle and compound IB′ were administered orally, except in the last arm of compound IB′ (7.5 mg/kg, q7dx3), which was dosed intravenously.

Human plasma stability = type: in vitro ADME; conditions: human plasma
Procedure: The plasma stability of compound IB′ was determined using plasma from four species.

[6] = CD-1, mouse, in vivo
[7] = Procedure: Repeat dose toxicology studies were performed in female SHO SCID mice using 3 animals per treatment group. […] Body weight measurements of animals treated by oral (see FIGS. 3A-B) and intravenous (see FIG. 3C-D) dosing over the course of the 5-day repeat dosing period and subsequent 5-day observation period, along with mortality and clinical observations, were used to determine the maximum tolerated dosing schedule (MTDrepeat).
[8] = male, Sprague Dawley, rat, plasma, IV 1 mg/kg, read-out: Plasma concentration of compound IB′ itself
[9] = male, Sprague Dawley, rat, plasma, PO 10 mg/kg, read-out: Plasma concentration of compound IB′ itself
[10] = rats, single oral dose 4.5 mg/kg
[11] = rats, single oral dose 18 mg/kg

CN1CC[C@H](c2c(OP(=O)(O)O)cc(O)c3c(=O)cc(-c4ccccc4Cl)oc23)[C@H](O)C1 [Compound IB′, 2-(2-chlorophenyl)-5-hydroxy-8-(3-hydroxy-1-methylpiperidin-4-yl)-4-oxo-4H-chromen-7-yl dihydrogen phosphate]
% Remaining ([1]; 0 h): 100.00% | % Remaining ([1]; 0.5 h): 88.48% | % Remaining ([1]; 1 h): 89.83% | % Remaining ([1]; 2 h): 97.71% | % Remaining ([1]; 3 h): 99.61% | % Remaining ([1]; 4 h): 100.46% | Plasma concentration of compound IB′ itself ([2]; IV 1 mg/kg, 2.00 hr, 1 mg/kg): below quantitative levels and BQL | Plasma concentration of compound IB′ itself ([2]; IV 1 mg/kg, 4.00 hr): BQL | Plasma concentration of compound IB′ itself ([2]; IV 1 mg/kg, 6.00 hr): BQL | Plasma concentration of compound IB′ itself ([2]; IV 1 mg/kg, 8.00 hr): BQL | Plasma concentration of compound IB′ itself ([2]; IV 1 mg/kg, 24.00 hr): BQL | Plasma concentration of compound IB′ itself ([2]; PO 10 mg/kg, 2.00 hr, 10 mg/kg): below quantitative levels and BQL | Plasma concentration of compound IB′ itself ([2]; PO 10 mg/kg, 4.00 hr): BQL | Plasma concentration of compound IB′ itself ([2]; PO 10 mg/kg, 6.00 hr): BQL | Plasma concentration of compound IB′ itself ([2]; PO 10 mg/kg, 8.00 hr): BQL | Plasma concentration of compound IB′ itself ([2]; PO 10 mg/kg, 24.00 hr): BQL | concentration at 0.083 h ([2]; male, Sprague Dawley, rat, plasma, IV 1 mg/kg, 0.083 hr, read-out: Plasma concentration of compound IB′ itself): 430 ng/mL | concentration at 0.25 h [2, 8]: 82 ng/mL | concentration at 0.5 h [2, 8]: 24.6 ng/mL | concentration at 1 h [2, 8]: 9.3 ng/mL | concentration at 0.25 h [2, 9]: 30 ng/mL | concentration at 0.5 h [2, 9]: 20.4 ng/mL | concentration at 1 h [2, 9]: 9.3 ng/mL | MTDacute ([3]; female Sprague Dawley rats, single oral dose): 18 mg/kg | NOAEL ([3]; female, Sprague Dawley, rat, in vivo, po): 18 mg/kg | HCT [3, 10]: 49.9% | MCH [3, 10]: 19.7 pg | MCHC [3, 10]: 35.9 g/dL | MCV [3, 10]: 54.8 fL | PLT [3, 10]: 37.1 10^3/μL | RBC [3, 10]: 9.1 10^6/μL | RDWA [3, 10]: 16.2 fL | WBC [3, 10]: 17.9 10^3/μL | HCT ([3]; rats, single oral dose 9 mg/kg): 42.7% | MCH ([3]; rats, single oral dose 9 mg/kg): 19.5 pg | MCHC ([3]; rats, single oral dose 9 mg/kg): 36.6 g/dL | MCV ([3]; rats, single oral dose 9 mg/kg): 53.3 fL | PLT ([3]; rats, single oral dose 9 mg/kg): 35.0 10^3/μL | RBC ([3]; rats, single oral dose 9 mg/kg): 8.0 10^6/μL | RDWA ([3]; rats, single oral dose 9 mg/kg): 15.9 fL | WBC ([3]; rats, single oral dose 9 mg/kg): 15.6 10^3/μL | platelet counts versus normal range ([3]; rats, single oral dose 9 mg/kg): outside the normal range | HCT [3, 11]: 31.2% | MCH [3, 11]: 19.6 pg | MCHC [3, 11]: 36.6 g/dL | MCV [3, 11]: 53.5 fL | PLT [3, 11]: 33.9 10^3/μL | RBC [3, 11]: 5.9 10^6/μL | RDWA [3, 11]: 15.7 fL | WBC [3, 11]: 11.4 10^3/μL | abnormal food consumption patterns [3, 11]: not observed | red and white blood cell counts [3, 11]: Slightly reduced | Body weight loss ([3]; rats, single oral dose 36 mg/kg, preceding death): 13.1% | overt toxicity ([3]; rats, single oral dose 18, 9, or 4.5 mg/kg): No overt toxicity, including body weight change or diarrhea, was observed | % Remaining (Dog plasma stability; 0 hours): 100.00% | % Remaining (Dog plasma stability; 0.5 hours): 83.66% | % Remaining (Dog plasma stability; 1 hour): 94.53% | % Remaining (Dog plasma stability; 2 hours): 112.61% | % Remaining (Dog plasma stability; 3 hours): 99.16% | % Remaining (Dog plasma stability; 4 hours): 93.91% | MTDacute ([4]; single dose, dosed intravenously): 15 mg/kg | MTDacute ([4]; single dose, dosed orally): 15 mg/kg | Minor body weight loss, peak ([4]; mice, 15 mg/kg intravenous dosing group, single dose): 3.3% | clinical observations ([4]; mice, single dose 30 mg/kg and 45 mg/kg): Body weight loss and increased lethargy were observed | overt toxicity ([4]; mice, single dose orally or intravenously at 15 mg/kg or 7.5 mg/kg): No overt toxicity was observed | mortality ([4]; mice, single intravenous dose 30 mg/kg): one animal died on day three | mortality ([4]; mice, single intravenous dose 45 mg/kg): two animals died on day two | mortality ([4]; mice, single oral dose 30 mg/kg): one animal died on day four | mortality ([4]; mice, single oral dose 45 mg/kg): one animal died on day two and one animal died on day three | Body weight loss, peak ([4]; single dose intravenously): 12% | Body weight loss, peak ([4]; single oral dose, 30 mg/kg group): 17% | solubility kinetic (physchem; pH 2.2, aqueous buffer): > 1000 µg/mL | solubility (physchem; pH 2.2, aqueous buffer, Solubility): 1900 µg/mL | solubility kinetic (physchem; pH 6.8, aqueous buffer): > 5000 µg/mL | solubility kinetic (physchem; pH 8.7, aqueous buffer): > 5000 µg/mL | Tumor Growth Inhibition ([5]; 2.5 mg/kg, qdx5x3, orally): 12% | Tumor Growth Inhibition ([5]; 7.5 mg/kg, q7dx3, intravenously): 74% | Tumor Growth Inhibition ([5]; 7.5 mg/kg, qdx5x3, orally): 69% | % Remaining (Human plasma stability; 0 hours): 100.00% | % Remaining (Human plasma stability; 0.5 hours): 96.32% | % Remaining (Human plasma stability; 1 hour): 88.01% | % Remaining (Human plasma stability; 2 hours): 104.22% | % Remaining (Human plasma stability; 3 hours): 102.59% | % Remaining (Human plasma stability; 4 hours): 94.36% | % Remaining (Human plasma stability; 5 hours): 100% and 100.26% | Bioavail. [6]: 182.3 ± 20.0 % F | MTDrepeat ([7]; female SHO SCID mice, five daily doses, dosed intravenously): 15 mg/kg | overt toxicity ([7]; mice, five daily doses, orally 7.5 or 2.5 mg/kg, or any dose level intravenously): No overt toxicity was observed | mortality ([7]; mice, five daily oral doses 15 mg/kg): one animal died on day 5, and one animal died on day 7 | Body weight loss, peak ([7]; surviving mice, five daily oral doses 15 mg/kg): 12%
